Measured values published in patent US20180271110A1, “REDUCTION OF MICROBIAL ACTIVITY AND METHOD OF PROCESSING ANIMAL AND POULTRY PRODUCTS” (Zee Company, priority 2017, published 2018).
Like-named read-outs stand apart in the source and are kept apart here.

Legend:
[1] = test system: Salmonella Enterica serovar enteriditis (SE); test: Antimicrobial efficacy of DCDMH vs DBDMH on Salmonella-contaminated chicken legs and beef cubes (15 s agitation in solution); format: cell-based; conditions: for log Reduction Ave.: 15 s agitation, 15 s drip
Procedure: In the following working example, a study was conducted to compare the antimicrobial efficacy of 1,3,-dichloro-5,5,-dimethylhydantoin (DCDMH) and 1,3,-dibromo-5,5,-dimethylhydantoin (DBDMH) at 200 ppm available chlorine on both chicken and beef test substrates. For sample preparation, chicken legs and beef cubes obtained from a local grocery store were used to conduct the following tests. Prior to exposure of the test substrates to the antimicrobial solutions having DCDMH or DBDMH, the test substrates were exposed for two hours in 300 mL of broth of Salmonella Enterica serovar enteriditis (SE), which had been grown to a concentration of >6 log 10 in Nutrient Broth for 2 h at 35° C. Following exposure, the test substrates were removed from the Nutrient Broth and allowed to drain and air dry for about 30 minutes at ambient room temperature before testing began.
1. The following solutions were prepared and distributed in 200 mL aliquots into Ziploc bags:
a. 200 ppm available chlorine solutions derived from DCDMH distributed it into an appropriate number of Ziploc bags;
b. FSIS new buffer solution containing Lecithin and Sodium thiosulfate (LST) into an appropriate number of Ziploc bags;
c. Phosphate Buffer Solution (PBS) into an appropriate number of Ziploc bags.
2. Into each bag of DCDMH solution, a Salmonella-contaminated test substrate was placed and agitated manually for 15 s. The test substrate was removed from the bag, allowed to drip for 15 s, then placed into a Ziploc bag containing 200 mL LST. The bag was then vigorously shaken for 45 s to neutralize the DCDMH and to release SE from the surface of the chicken leg.
3. After the bags were shaken, 100 μL from each of the shaken bags was removed and dispensed into test tubes containing 9.9 mL of DI HOH. The contents of these tubes were used for serial dilution.
4. As controls, a prepared test substrate was inserted into each of two bags of PBS and agitated manually for 15 s. The substrate was removed from the bag and placed directly into a Ziploc bag containing 200 mL LST. The bag was vigorously shaken for 45 s to release SE from the surface of the substrate.
5. Repeat Step 3 with the control solutions.
6. Serially dilute the contents of the test tubes from Step 3 above. Plate 100 μL aliquots on Salmonella-Shigella Agar (SSA), then incubate for 18-24 h at 35° C. Enumerate colonies that have black centers (presumptive SE) after incubation.
7. Repeat the entire protocol replacing the DCDMH solution with […] solution in Step 1.a.

[2] = test system: Salmonella Enterica serovar enteriditis (SE)
Procedure: In the following working example, a study was conducted to compare the antimicrobial efficacy of 1,3,-dichloro-5,5,-dimethylhydantoin (DCDMH) at various concentrations (100 ppm, 200 ppm, and 400 ppm) on beef test substrates from beef brisket and beef liver. For sample preparation, beef brisket and beef liver were cubed to have approximately […] of exposed surface. Prior to exposure of the test substrates to the antimicrobial solutions having DCDMH, the test substrates were incubated for two hours in 300 mL of broth of Salmonella Enterica serovar enteriditis (SE), which had been grown to a concentration of >6 log 10 in Nutrient Broth for 2 h at 35° C. Following exposure, the test substrates were removed from the Nutrient Broth and allowed to drain and air dry for about 30 minutes at ambient room temperature before testing began. The test was replicated 10 times for each concentration and two controls. The concentration of DCDMH was then tested on the exposed test substrates using spray and dip applications.
1. A test substrate cube was suspended on a stainless steel hook and the antimicrobial solution was atomized onto the cube to thoroughly cover all sides until solution was dripping from the test substrate cube, which was for about 5 to about 10 seconds;
2. The test substrate cube was allowed to drip for about 10 to about 50 seconds (to obtain total antimicrobial contact times of about 15 to about 60 seconds when combined with the exposure in step 1 above).
3. The test substrate cube was then placed in a Ziploc bag containing 100 mL of LST solution to neutralize any residual antimicrobial chemistry;
(§1) 4. The Ziploc bag containing the test substrate cube was then vigorously shaken for about for 45 seconds to release bacterial cells from the surface of the meat into the LST solution;
(§2) 5. A 100 μL aliquot of LST solution from the bag was injected into 9.9 mL of sterile phosphate buffer solution;
(§3) 6. The LST solution was serially diluted, then plated on Salmonella Shigella agar and incubated for 24 h prior to counting presumptive positive Salmonella colonies;
(§4) 7. This procedure was repeated at each concentration of DCDMH;
8. For controls, 2 cubes of each test substrate were treated as in steps 1-2 above, except the control substrate cubes were atomized with sterile deionized water in step 1 above. And then steps 2-6 of the process above were continued.
1. A test substrate cube was placed in a Ziploc bag containing 100 mL of the antimicrobial solution and allowed to remain in the solution for about 15 to about 30 seconds under gentle manual agitation;
2. The test substrate cube was removed from the test solution using sterile forceps and allowed to drip for about 0 to about 30 seconds (to obtain total antimicrobial contact times of about 15 to about 60 seconds when combined with the exposure in step 1 above);
8. For controls, 2 cubes of each test substrate were treated as in steps 1-2 above, except the control substrate cubes were placed in 100 mL Ziploc bags of phosphate buffer solution in step 1 above. And then steps 2-6 of the process above were continued.

[3] = test system: Salmonella Enterica serovar enteriditis (SE); remark: listed apart in the source
Procedure: In the following working example, a study was conducted to compare the antimicrobial efficacy of 1,3,-dichloro-5,5,-dimethylhydantoin (DCDMH) at various concentrations (50 ppm, 100 ppm, and 200 ppm) on chicken test substrates, namely, chicken legs and chicken liver. Prior to exposure of the test substrates to the antimicrobial solutions having DCDMH, the test substrates were incubated for two hours in 1000 mL of broth of Salmonella Enterica serovar enteriditis (SE), which had been grown to a concentration of >6 log 10 in Nutrient Broth for 2 h at 35° C. Following exposure, the test substrates were removed from the Nutrient Broth and allowed to drain and air dry for about 30 minutes at ambient room temperature before testing began. The test was replicated 10 times for each concentration and two controls. The concentration of DCDMH was then tested on the exposed test substrates using spray and dip applications.
1. A test poultry product (e.g., chicken leg or chicken liver) was suspended on a stainless steel hook in a spray cabinet and sprayed until the part was drenched with antimicrobial solution, which was for about 5 to about 10 seconds;
2. The test poultry product was allowed to drip for about 10 to about 50 seconds (to obtain total antimicrobial contact times of about 15 to about 60 seconds when combined with the exposure in step 1 above);
3. The test poultry product was then placed in a Ziploc bag containing 200 mL of LST solution to neutralize any residual antimicrobial chemistry;
4. The Ziploc bag containing the test poultry product was then vigorously shaken for about for 45 seconds to release bacterial cells from the surface of the poultry product into the LST solution;
as §2
6. The LST solution was serially diluted, then plated on Salmonella Shigella agar and incubated for 24-36 hours prior to counting presumptive positive Salmonella colonies;
as §4
8. For controls, 2 poultry legs and 2 poultry livers for the corresponding test were treated as in steps 1-2 above, except the control poultry products were drenched with sterile deionized water in step 1 above. And then steps 2-6 of the process above were continued.
1. A test poultry product was placed in a Ziploc bag containing 200 mL of the antimicrobial solution and allowed to remain in the solution for about 15 to about 30 seconds under gentle manual agitation;
2. The test poultry product was removed from the test solution using sterile forceps and allowed to drip for about 0 to about 30 seconds (to obtain total antimicrobial contact times of about 15 to about 60 seconds when combined with the exposure in step 1 above);
3. The test poultry product was then placed in a Ziploc bag containing 200 mL broth of LST solution to neutralize any residual antimicrobial chemistry;
as §1, §3
8. For controls, 2 poultry legs and 2 poultry liver for each test were treated as in steps 1-2 above, except the test substrate cubes were placed in 200 mL Ziploc bags of phosphate buffer solution in step 1 above. And then steps 2-6 of the process above were continued.

[4] = beef test substrate, 200 ppm available chlorine
[5] = chicken test substrate, 200 ppm available chlorine

Compound | log Reduction Ave. [1, 4] [log] | log Reduction Ave. [1, 5] [log] | antimicrobial efficacy against S. Enteritidis compared with DBDMH ([1]; 200 ppm available chlorine, chicken and beef, short contact time) | anticipated efficacy (log reduction) under normal in-plant use conditions ([1]; normal in-plant use conditions, anticipated) [log] | Ave. Log Reduction ([2]; Beef Liver, Active Cl 100 ppm, Dip, 60 seconds) [log] | Ave. Log Reduction ([2]; Beef Liver, Active Cl 200 ppm, Spray, 30 seconds) [log] | Ave. Log Reduction ([2]; Beef Liver, Active Cl 400 ppm, Dip, 15 seconds) [log] | Ave. Log Reduction ([2]; Beef Muscle, Active Cl 100 ppm, Dip, 60 seconds) [log] | Ave. Log Reduction ([2]; Beef Muscle, Active Cl 200 ppm, Spray, 30 seconds) [log] | Ave. Log Reduction ([2]; Beef Muscle, Active Cl 400 ppm, Dip, 15 seconds) [log] | antimicrobial efficacy against S. Enteritidis ([2]; about 100 ppm to about 400 ppm, dip or spray application, beef substrates) | anticipated efficacy (log reduction) under normal in-plant use conditions ([2]; normal in-plant use conditions, about 100 to about 400 ppm, dip or spray, anticipated) [log] | Ave. Log Reduction ([3]; Chicken Leg, Active Cl 50 ppm, Dip, 60 seconds) [log] | Ave. Log Reduction ([3]; Chicken Leg, Active Cl 100 ppm, Spray, 30 seconds) [log] | Ave. Log Reduction ([3]; Chicken Leg, Active Cl 200 ppm, Dip, 15 seconds) [log] | Ave. Log Reduction ([3]; Chicken Liver, Active Cl 50 ppm, Dip, 60 seconds) [log] | Ave. Log Reduction ([3]; Chicken Liver, Active Cl 100 ppm, Spray, 30 seconds) [log] | Ave. Log Reduction ([3]; Chicken Liver, Active Cl 200 ppm, Dip, 15 seconds) [log] | antimicrobial efficacy against S. Enteritidis ([3]; about 50 ppm to about 200 ppm, dip or spray application, poultry products) | anticipated efficacy (log reduction) under normal in-plant use conditions ([3]; normal in-plant use conditions, about 50 to about 200 ppm, dip or spray, anticipated) [log]
CC1(C)C(=O)N(Br)C(=O)N1Br [DBDMH, 1,3,-dibromo-5,5,-dimethylhydantoin, reference compound] | 0.15 | 0.29 |  |  |  |  |  |  |  |  |  |  |  |  |  |  |  |  |  | 
CC1(C)C(=O)N(Cl)C(=O)N1Cl [DCDMH, 1,3,-dichloro-5,5,-dimethylhydantoin] | 0.51 | 0.64 | substantially greater antimicrobial efficacy | > 1 | 0.90 | 1.01 | 1.11 | 0.89 | 0.91 | 1.18 | great antimicrobial efficacy | > 1 | 0.78 | 0.86 | 1.22 | 0.69 | 0.72 | 1.07 | great antimicrobial efficacy | > 1
